This note sets out measurements from patent US10188630B2, “Methods for identifying and using inhibitors of casein kinase 1 epsilon isoform for inhibiting the growth and/or proliferation of MYC-driven tumor cells” (Fred Hutchinson Cancer Research Center, priority 2010, dated 2019).

Assay [1] has as its system IMR-32 (amplified MYCN expression). Particulars: 1 μM or 10 μM; 48, 72 and 96 hours; compared to SK-N-AS. How it is done:
(§1) Cyclopamine, a known natural inhibitor of SHH, was administered to SK-N-AS and IMR-32, to assess the impact of SHH inhibition on cell viability of neuroblastoma cells with normal and amplified MYCN expression, respectively. Cyclopamine was administered to the SK-N-AS and IMR-32 in 1 μM or 10 μM doses, and the growth inhibition was assayed at 48, 72 and 96 hours.

Assay [2] deals with SK-N-AS (normal MYCN expression). Particulars: 1 μM or 10 μM; 48, 72 and 96 hours. How it is done:
as §1

Consider `CC1=C2C[C@H]3[C@@H](CC=C4C[C@@H](O)CC[C@@]43C)[C@@H]2CC[C@]12O[C@@H]1C[C@H](C)CN[C@H]1[C@H]2C` [Cyclopamine], for which the growth inhibition result in assay [1] is “more pronounced”; in assay [2], “Growth inhibition was detected”.
